Source: patent publication US10660967B2, “Curcumin conjugates and methods of use thereof” (priority 2016, dated 2020)
Like-named read-outs stand apart in the source and are kept apart here.

Key:
[1] = tested on: PHA-stimulated splenocytes; assay: Proliferative response of PHA-stimulated splenocytes (MTT assay); type: cell-based; settings: for Stimulation Index (average ± SD): PHA 5 μg/ml, 72 hr, compounds at 5 μM (method says 10 μM), ratio of O.D. versus vehicle control
Method: Immunomodulatory effects of the synthesized curcumin conjugates on the proliferative response of PHA-stimulated splenocytes were evaluated. The effect of curcumin and its amino acid conjugates on splenocyte viability and proliferation in response to a T cell miotgen (Phytohaemagglutinin; PHA) was evaluated using the MTT assay. Freshly prepared splenocytes (1×10^6 cells/200 μl/well) were cultured in a 96-well U-bottom microtiter plate (Nunc) in complete medium. Cells were treated with tested compounds at a final concentration of 10 μM, vehicle (DMSO) or left untreated in triplicate then incubated at 37° C. and 5% CO2. When testing the immunoregulatory effects of the compounds on splenocyte stimulation, PHA (5 μg/ml) was added to the culture media to induce T cell proliferation. The proliferative response to PHA+vehicle and vehicle alone served as controls. After 72 hr, media were removed after pelleting the cells by centrifugation and MTT salt solution (5 mg/ml) was added into each well then incubated at 37° C. for 4 h. Afterwards, formazan crystals were dissolved by adding 150 μl 10% sodium dodecyl sulfate (SDS). Absorbance was measured with a spectrophotometer at 570 nm and reference wavelength of 690 nm.
Splenocyte stimulation index was determined as the ratio of O.D. values in tested compounds versus vehicle control cultures.

[2] = tested on: lipopolysaccharide-stimulated peritoneal macrophages; assay: Production of nitric oxide by lipopolysaccharide-stimulated peritoneal macrophages (Greiss reagent); type: cell-based; set-up: Potency (%): % inhibition of nitric oxide production relative to lipopolysaccharide-stimulated macrophages: concentration or dose not given beside the values; settings: LPS-stimulated peritoneal macrophages; for Nitric oxide (nitrite) concentration, μM (average ± SD): 24 h, nitrite by Greiss reagent
Method: The effects of the synthesized curcumin conjugates on the production of nitric oxide (μM) by lipopolysaccharide-stimulated peritoneal macrophages were evaluated.
Two milliliters of macrophage cells were seeded in 12-well tissue culture plates in nitrite-free medium supplemented with 0.1% bovine serum albumin and incubated at 37° C. LPS±epinephrine, norepinephrine, or dopamine at […] concentrations was added to some wells. The concentrations of LPS used ranged from 0.5 to 10 ng/ml. After incubation for 24 h, supernatants were collected for measuring nitric oxide (NO) by spectrophotometry. The production of NO was determined from the accumulation of nitrite (NO2), the metabolic end product of NO metabolism, in the medium using the Greiss reagent. About equal volumes (100 μl) of sample and Greiss reagent (1:1 mixture of 1% sulfanilamide in 5% phosphoric acid, and 0.1% a-naphthylamine in distilled water) were mixed and incubated at room temperature for 15 min, and absorbance was measured at 532 nm on a spectrophotometer.

[3] = tested on: Salmonella typhi ATCC19430; assay: Antimicrobial MIC, agar dilution; type: cell-based; settings: Salmonella enterica, read-out: Minimum inhibitory concentration (MIC)
[4] = tested on: HCT116 (colon) carcinoma cell line; assay: Anti-tumor properties, MTT; type: cell-based; settings: Homo sapiens, HCT-116; HCT116, 100 μM, 72 h; read-out: Percentage growth of tumor cell lines treated with the tested compounds (±SD)
Method: (§1) Anti-tumor properties of curcumin conjugates were evaluated. The synthesized curcumin-amino acid conjugates and curcumin itself were screened for their antitumor properties against human tumor cell lines utilizing HepG2 (hepatocellular), MCF7 (breast), and HCT116 (colon) carcinoma cell lines by the standard mitochondrial dependent reduction of yellow MTT [3-(4,5-dimethylthiazol-2-yl)-2,5-diphenyl-tetrazolium bromide] to purple formazan technique. Cancer cells were obtained from the Egyptian Company for Production of Vaccines, Sera and Drugs (VACSERA), Cairo, Egypt. Media, chemicals and supplies for the bio-assay were obtained from Biowest, Gibco and Lonza Companies. Cells were suspended in RPMI-1640 medium for HepG2, DMEMF12 for MCF-7, and DMEM for HCT116 in addition to 1% antibiotic-antimycotic mixture (10 […] potassium penicillin, 10 […] streptomycin sulfate and […] amphotericin B), 10% fetal bovine serum and 1% L-glutamine at 37° C., under 5% CO2 and 95% humidity. Cells were seeded at a concentration of 10×10^3 cells per well in fresh complete growth medium in 96-well tissue culture microtiter plates for 24 h. Media was aspirated, 180 μL fresh medium (without serum) were added and cells were incubated with different concentrations of sample to give a final concentration of 100 μM. 0.5% DMSO was used as a negative control and doxorubicin was used as a positive control (standard reference). Triplicate wells were prepared for each individual tested compound/dose. After 72 h of incubation, the medium was aspirated, 40 μL MTT salt (2.5 mg ml^1) were added to each well and incubated for an additional 4 h at 37° C. To stop the reaction and dissolve the formed crystals, 200 μL of 10% sodium dodecyl sulfate (SDS) in deionized water were added to each well and incubated overnight at 37° C. The absorbance was then measured at 595 nm with a reference wavelength of 620 nm. Data were collected as mean values for experiments performed in triplicates for each compound which had been measured by MTT assay.
(§2) The percentage of cell survival was calculated according to equation (4): […]
(§3) The IC50 was determined using Graph-Pad PRISM version-5 software. Statistical calculations for determination of the mean and standard deviation (SD) values were determined by SPSS 16 software.

[5] = tested on: HepG2 (hepatocellular) carcinoma cell line; assay: Anti-tumor properties, MTT; type: cell-based; settings: Homo sapiens; HepG2, 100 μM, 72 h; read-out: Percentage growth of tumor cell lines treated with the tested compounds (±SD)
Method: as §1, §2, §3

[6] = tested on: MCF7 (breast) carcinoma cell line; assay: Anti-tumor properties, MTT; type: cell-based; settings: Homo sapiens; MCF7, 100 μM, 72 h; read-out: Percentage growth of tumor cell lines treated with the tested compounds (±SD)
Method: as §1, §2, §3

MCF-7 cells = assay: Effect on doxorubicin induced cytotoxicity (MTT); settings: for Percentage of viable cells MCF-7 (average ± SD): 10 μM DOX in combination with 100 μM curcumin derivative, 48 hr; for viability at 100 µM: Homo sapiens, MCF7, 48 h, read-out: Percentage of viable cells MCF-7 (average ± SD)
Method: The effects of curcumin conjugates on doxorubicin induced cytotoxicity were evaluated. In order to further examine whether curcumin derivatives can enhance conventional chemotherapeutic agents, MCF-7 cells were treated with 100 μM curcumin derivatives alone or in combination with 10 μM doxorubicin (DOX) for 48 hr. Control cultures received only medium, vehicle (DMSO), or vehicle+DOX. The percentage of viable cells was determined by MTT assay according to equation (5): […]

[7] = tested on: Staphylococcus aureus ATCC25923; assay: Antimicrobial MIC, agar dilution
[8] = tested on: Streptococcus pyogenes ATCC19615; assay: Antimicrobial MIC, agar dilution
[9] = tested on: Pseudomonas aeruginosa ATCC27853; assay: Antimicrobial MIC, agar dilution
[10] = tested on: Candida albicans (local isolate); assay: Antimicrobial MIC, agar dilution; settings: Candida albicans, read-out: Minimum inhibitory concentration (MIC)
[11] = ATCC25923, 18 h, read-out: Minimum inhibitory concentration (MIC)
[12] = ATCC25923, read-out: Minimum inhibitory concentration (MIC)
[13] = ATCC19615, 18 h, read-out: Minimum inhibitory concentration (MIC)
[14] = ATCC19615, read-out: Minimum inhibitory concentration (MIC)
[15] = ATCC27853, 18 h, read-out: Minimum inhibitory concentration (MIC)
[16] = ATCC27853, read-out: Minimum inhibitory concentration (MIC)

Row | Compound | Stimulation Index (average ± SD) [1] | Potency (%): % inhibition of nitric oxide production relative to lipopolysaccharide-stimulated macrophages [2] [%] | Nitric oxide (nitrite) concentration, μM (average ± SD) [2] [µM] | MIC ([3]; 18 h) [µg/mL] | MIC [3] [µM] | activity at 100 µM [4] [%] | activity at 100 µM [5] [%] | activity at 100 µM [6] [%] | Percentage of viable cells MCF-7 (average ± SD) (MCF-7 cells) | viability at 100 µM (MCF-7 cells) [%] | MIC [7, 11] [µg/mL] | MIC [7, 12] [µM] | MIC [8, 13] [µg/mL] | MIC [8, 14] [µM] | MIC [9, 15] [µg/mL] | MIC [9, 16] [µM] | MIC ([10]; 18 h) [µg/mL] | MIC [10] [µM] | splenocyte proliferation, fold relative to untreated control cells ([1]; in the presence of PHA, text of b265) [fold]
1 | COc1cc(/C=C/C(=O)CC(=O)/C=C/c2ccc(OC(=O)[C@H](C)NC(=O)OCc3ccccc3)c(OC)c2)ccc1OC(=O)[C@H](C)NC(=O)OCc1ccccc1 [Cbz-Ala-Cur, ((1E,6E)-3,5-dioxohepta-1,6-diene-1,7-diyl)bis(2-methoxy-4,1-phenylene) (2S,2′S)-bis(2-(((benzyloxy)carbonyl)amino)propanoate)] | 2.70 ± 0.25 | 8.86 | 24.89 ± 1.65 | 0.5 | 0.642 | 86.6 ± 6.2 | 82.3 ± 4.2 | 70 ± 4.1 | 46.65 ± 2.06 | 99.5 ± 4.47 | 0.25 | 0.321 | 0.125 | 0.161 | 2 | 2.57 | 2 | 2.57 | –
2 | COc1cc(/C=C/C(=O)CC(=O)/C=C/c2ccc(OC(=O)CNC(=O)OCc3ccccc3)c(OC)c2)ccc1OC(=O)CNC(=O)OCc1ccccc1 [Cbz-Gly-Cur, ((1E,6E)-3,5-dioxohepta-1,6-diene-1,7-diyl)bis(2-methoxy-4,1-phenylene) bis(2-(((benzyloxy)carbonyl)amino)acetate)] | 2.64 ± 0.10 | 10.11 | 24.55 ± 0.66 | 0.5 | 0.666 | 88.1 ± 2.6 | 79.8 ± 8.8 | 60 ± 2.7 | 45.44 ± 1.88 | 97.4 ± 5.3 | 0.125 | 0.166 | 0.125 | 0.166 | 1 | 1.33 | 0.5 | 0.666 | –
3 | COc1cc(/C=C/C(=O)CC(=O)/C=C/c2ccc(OC(=O)[C@H](CC(C)C)NC(=O)OCc3ccccc3)c(OC)c2)ccc1OC(=O)[C@H](CC(C)C)NC(=O)OCc1ccccc1 [Cbz-Leu-Cur, ((1E,6E)-3,5-dioxohepta-1,6-diene-1,7-diyl)bis(2-methoxy-4,1-phenylene) (2S,2′S)-bis(2-(((benzyloxy)carbonyl)amino)-4-methylpentanoate)] | 2.83 ± 0.17 | 4.57 | 26.06 ± 0.65 | 0.25 | 0.29 | 94.7 ± 5.8 | 85.1 ± 5.7 | 85.7 ± 1.2 | 50.17 ± 4.94 | 98.2 ± 3.44 | 0.125 | 0.145 | 0.125 | 0.145 | 0.125 | 0.145 | 0.5 | 0.579 | –
4 | COc1cc(/C=C/C(=O)CC(=O)/C=C/c2ccc(OC(=O)[C@H](Cc3ccccc3)NC(=O)OCc3ccccc3)c(OC)c2)ccc1OC(=O)[C@H](Cc1ccccc1)NC(=O)OCc1ccccc1 [Cbz-Phe-Cur, ((1E,6E)-3,5-dioxohepta-1,6-diene-1,7-diyl)bis(2-methoxy-4,1-phenylene) (2S,2′S)-bis(2-(((benzyloxy)carbonyl)amino)-3-phenylpropanoate)] | 2.91 ± 0.13 | 3.60 | 26.33 ± 0.52 | 0.125 | 0.134 | 96.4 ± 4 | 99.6 ± 8.7 | 69.3 ± 3 | 43.40 ± 4.74 | 105 ± 4.5 | 0.125 | 0.134 | 0.125 | 0.134 | 0.25 | 0.269 | 2 | 2.15 | 3.81
5 | COc1cc(/C=C/C(=O)CC(=O)/C=C/c2ccc(OC(=O)[C@H](Cc3c[nH]c4ccccc34)NC(=O)OCc3ccccc3)c(OC)c2)ccc1OC(=O)[C@H](Cc1c[nH]c2ccccc12)NC(=O)OCc1ccccc1 [Cbz-Trp-Cur, ((1E,6E)-3,5-dioxohepta-1,6-diene-1,7-diyl)bis(2-methoxy-4,1-phenylene) (2S,2′S)-bis(2-(((benzyloxy)carbonyl)amino)-3-(1H-indol-3-yl)propanoate)] | 2.60 ± 0.12 | 11.08 | 24.28 ± 0.82 | 0.125 | 0.124 | 100 ± 7 | 97.6 ± 6.8 | 79.5 ± 0.6 | 45.17 ± 4.04 | 98.2 ± 2.96 | 0.125 | 0.124 | 0.5 | 0.496 | 0.25 | 0.248 | 1 | 0.991 | –
